This is an account of results in patent US20040204466A1, “Treatment of bronchial asthma using 5-HT3 receptor antagonists” (Orchid Chemicals and Pharmaceuticals Ltd., priority 2003, published 2004).

Holding throughout (format): in vivo, female Balb/c mice
For assay [1], the system named is ovalbumin sensitized and challenged mice. Briefly: Airway hyperresponsiveness to methacholine (Penh, barometric plethysmography). To be noted: 24 hours after antigen challenge, increasing doses of methacholine, FIGS. 5 and 6.
Description: Four to five-week old female Balb/c mice (Harlan Laboratories, Indianapolis, Ind.) were housed according to the NIH guidelines and were allowed constant access to food and water. Intraperitoneal injections of 6 μg of grade V chicken egg ovalbumin (Ova; Sigma-Aldrich, St. Louis, Mo.) adsorbed to 2.25 mg Imject Alum (Pierce, Rockford, Ill.) and dissolved in PBS. Aerosol sensitization with 0.2% ovalbumin (Ova) for 10 minutes using Ultra-Neb 90 nebulizer (DeVilbiss, Somerset, Pa.). Twenty-four hours after antigen challenge, the mice were challenged with increasing does of methacholine and Penh values were recorded by barometric plethysmography.
For assay [2] the test system is unchanged. As to the kind of experiment: Ova-specific airway resistance of early and late allergic response to antigen challenge. To be noted: gavage 120 μg/kg twice a day for 10 days. The protocol: Four to five-week old female Balb/c mice (Harlan Laboratories, Indianapolis, Ind.) were housed according to the NIH guidelines and were allowed constant access to food and water. Intraperitoneal injections of 6 μg of grade V chicken egg ovalbumin (Ova; Sigma-Aldrich, St. Louis, Mo.) adsorbed to 2.25 mg Imject Alum (Pierce, Rockford, Ill.) and dissolved in PBS. Aerosol sensitization with 0.2% ovalbumin (Ova) for 10 minutes using Ultra-Neb 90 nebulizer (DeVilbiss, Somerset, Pa.). Ondansetron was administered by gavage in the dose of 120 μg/kg twice a day for 10 days.

For assay [3] the test system is unchanged. As to the kind of experiment: Eosinophils in BAL fluid following methacholine challenge. To be noted: immediately following methacholine challenge; FIGS. 7 and 8.
Assay [4] has the same test system. Briefly: Serum IgE levels. Particulars: gavage 120 μg/kg twice a day for 10 days; values increased, albeit insignificantly.

As for `Cc1nccn1CC1CCc2c(c3ccccc3n2C)C1=O` (centres unmarked) [Ondansetron], the AHR to methacholine result in assay [1] is listed as “completely suppressed”. Further, the “Ova-specific airway resistance of the early allergic response (EAR)” value in assay [2] (FIG. 1) is on record as “without EAR protection”. Further, the “Ova-specific airway resistance of the late allergic response (LAR)” value in assay [2] (P <0.001, FIG. 2) was “significant protection during the LAR”. Besides, the “numbers of eosinophil in BAL” value in assay [3] is “significantly descried numbers of eosinophil”. Besides, the “mean serum IgE concentrations” value in assay [4] is on record as “unaffected”.
